Each structure is given as a SMILES string.

The conditions of series [1]: in vivo; cited from earlier work.
For series [2], the system named is DNA polymerase of many viruses, including human cytomegalovirus (HCMV), herpes simplex virus (HSV). Conditions: HSV and many other viruses; cited from earlier work.
The test system of series [3] is reverse transcriptase of human immunodeficiency virus (HIV). Conditions: cited from earlier work.
The subject of another series is human cytomegalovirus. Nature of the series: CMV antiviral susceptibility assay: HCMV DNA by nucleic acid hybridization in infected MRC-5 cells (Tables I and II). The class given is cell-based. Conditions: Human betaherpesvirus 5, MRC5, 120 h; HCMV-infected MRC-5 cells, HCMV DNA after five days; mean ± S.D. (n). The method, then:
Phosphonoacid derivatives having structures according to formula I were tested for antiviral activity in human embryonic lung fibroblasts (MRC-5) or in human epithelioid cervical carcinoma cells (HeLa) expressing the CD4 receptor (HT4-6C). HCMV (strain AD-169) and HSV-1 (wild type) were used to infect MRC-5 cells and HCMV or HSV-specific DNA was measured by DNA-probe methods (HybriwixTM, Diagnostic Hybrids, Inc., Athens, Ohio) according to the manufacturer's instructions. HIV replication was accessed in HIV-1 infected HT4-6C cells using a plaque reduction assay ([…]. et al. (1990) Antimicrobial Agents Chemother. 34:436). Subconfluent MRC-5 cells in 24-well culture dishes were pretreated for 24 hours with various concentrations of drug in MEM medium containing 2% FBS and antibiotics. The media was removed and virus added at a dilution that will result in a 3-4+ cytopathic effect (CPE) in the no-drug wells in five days. This was absorbed for 1 hour at 37° C., aspirated and replaced with the drug dilutions. After five days of incubation HCMV DNA was quantified in triplicate by nucleic acid hybridization using a CMV Antiviral Susceptibility Test Kit from Diagnostic Hybrids, Inc. (Athens, Ohio). The media was removed and cells lysed according to the manufacturer's instructions. After absorption of the lysate, the HybriwixTM filters were hybridized overnight at 60° C. The HybriwixTM were washed for 30 minutes at 73° C. and counted in a gamma counter. The results are expressed as a percentage of the untreated HCMV-infected control cells.

For series [4], the system named is human herpes simplex virus 1. Nature of the series: HSV antiviral susceptibility assay: HSV DNA by nucleic acid hybridization in infected MRC-5 cells (Table III). Conditions: Human alphaherpesvirus 1, MRC5, 24 h. The class given is cell-based. The method, then: (§1) Phosphonoacid derivatives having structures according to formula I were tested for antiviral activity in human embryonic lung fibroblasts (MRC-5) or in human epithelioid cervical carcinoma cells (HeLa) expressing the CD4 receptor (HT4-6C). HCMV (strain AD-169) and HSV-1 (wild type) were used to infect MRC-5 cells and HCMV or HSV-specific DNA was measured by DNA-probe methods (Hybriwix™, Diagnostic Hybrids, Inc., Athens, Ohio) according to the manufacturer's instructions. HIV replication was accessed in HIV-1 infected HT4-6C cells using a plaque reduction assay (Larder, B. et al. (1990) Antimicrobial Agents Chemother. 34:436).
Subconfluent MRC-5 cells in 24-well culture dishes were inoculated by removing the media and adding HSV-1 virus at a dilution that will result in a 3-4+ CPE in the no-drug well in 20-24 hours. This was absorbed for 1 hour at 37° C., aspirated and replaced with various concentrations of drugs in MEM medium containing 2% FBS and antibiotics. After approximately 24 hours of incubation, HSV DNA was quantified in triplicate by nucleic acid hybridization using a HSV Antiviral Susceptibility Test Kit from Diagnostic Hybrids, Inc. (Athens, Ohio). The media was removed and cells lysed according to the manufacturer's instructions. After absorption of the lysate, the Hybriwix™ filters were hybridized overnight at […] The Hybriwix™ were washed for 30 minutes at 73° C. and counted in a gamma counter. The results are expressed as a percentage of the untreated HSV-infected control cells.

In series [5] the test system is human immunodeficiency virus-1. Nature of the series: HIV-1 plaque reduction assay in HT4-6C cells (Table IV). The class given is cell-based, HIV-1 in CD4-expressing human HeLa cells (HT4-6C). Conditions: Human immunodeficiency virus 1, 72 h; HIV-1 plaque reduction in HT4-6C cells, 3 days; mean ± S.D. (n). On the procedure:
as §1
HT4-6C cells and plaque reduction assay, CD4-expressing HeLa cells, HT4-6C cells (Chesebro, B. and K. Wehrly (1988) J. Virology 62:3779-3788), were obtained from Bruce Chesebro, Hamilton, Mont. The effect of antiviral compounds on HIV replication was measured by a plaque reduction assay. Briefly, monolayers of HT4-6C cells were infected with 100 to 300 PFU of virus per well in 24-well microdilution plates. Various concentrations of drug were added to the culture medium, Dulbecco's Modified Eagle Medium containing 5% fetal bovine serum and antibiotics, as noted above. After 3 days at 37° C., the monolayers were fixed with 10% formaldehyde solution in phosphate-buffered saline and stained with 0.25% crystal violet to visualize virus plaques (Larder, B. et al. (1989) Science 243:1731-1734). Antiviral activity was assessed as the percentage of control plaques measured in drug-treated samples.

As to `O=C(O)CP(=O)(O)O` [PAA, phosphonoacetic acid], the toxicity in humans entry in series [1] is recorded as “too toxic for use in humans”. Moreover, the “selective inhibition of viral DNA polymerase” value in series [2] is recorded as “selectively inhibit the DNA polymerase of many viruses”. For the same compound, the “selective inhibition of HIV reverse transcriptase” value in series [3] was “selectively inhibit”. Also, the IC50 in the series with human cytomegalovirus came to 22 ± 7 µM.
In the case of `O=C(O)P(=O)(O)O` [PFA, phosphonoformic acid, reference compound], the values for the half-inhibitory concentration (IC50) (in series [4]; in series [5]; in the series on human cytomegalovirus) were 47 ± 20 µM, 133 ± 54 µM and 46 ± 19 µM, respectively. The toxicity in humans entry in series [1] is “substantial toxicity to the kidney and other organs”. In addition, the “selective inhibition of viral DNA polymerase” value in series [2] is given as “selectively inhibit the DNA polymerase of many viruses”. Further, in series [3], the “selective inhibition of HIV reverse transcriptase” value is given as “selectively inhibit”.

The values above are taken from patent US5696277A, “Antiviral prodrugs” (Hostetler; Karl Y., priority 1994, dated 1997).
